What all share (experiment): biochemical
One experiment addresses T1, MMP-13 (Homo sapiens, UniProt P45452).
T1 construct: made in house; host or cells: baculovirus / insect cells
The conditions noted are these: recombinant human MMP-13, MCA peptide substrate 4 μM, pH 7.5, room temperature; read-out: MMP-13 IC50. The method in brief: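 APMA- or trypsin-activated enzymes were preincubated with inhibitor for 5 min at room temperature, then the fluorogenic substrate MCA-Pro-Leu-Gly-Leu-Dpa-Ala-Arg-NH2 was added to a final 4 μM.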

The next experiment has as its target T2, MMP-1 (Homo sapiens, UniProt P03956).
T2 construct: made in house; host or cells: transfected HT-1080 cells (provided by Dr. Harold Welgus, Washington University)
T2 sequence (P03956 100-469): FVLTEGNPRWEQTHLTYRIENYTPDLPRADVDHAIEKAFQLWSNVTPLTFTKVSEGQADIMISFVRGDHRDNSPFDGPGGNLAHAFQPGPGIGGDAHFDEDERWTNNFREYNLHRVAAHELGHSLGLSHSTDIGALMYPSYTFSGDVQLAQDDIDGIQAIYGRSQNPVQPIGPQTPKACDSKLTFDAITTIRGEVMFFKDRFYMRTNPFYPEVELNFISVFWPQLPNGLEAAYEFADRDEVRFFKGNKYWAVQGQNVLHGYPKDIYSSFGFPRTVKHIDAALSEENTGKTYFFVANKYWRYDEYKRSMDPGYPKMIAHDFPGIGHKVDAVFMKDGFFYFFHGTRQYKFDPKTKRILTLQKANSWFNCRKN
The conditions noted are these: read-out: MMP-1 IC50. The method in brief:
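Substrate MCA-PLGL-Dpa-AR-NH2 at 4 μM final; pH 7.5 Tris/NaCl/CaCl2 buffer with 0.05% polyethyleneglycol lauryl ether, 1% DMSO, room temperature. MMP-1 was expressed in transfected HT-1080 cells and APMA-activated.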

Another experiment concerns the target T3, MMP-2 (Homo sapiens, UniProt P08253).
T3 construct: made in house; provided by Dr. Gregory Goldberg, Washington University
T3 sequence (P08253 110-660): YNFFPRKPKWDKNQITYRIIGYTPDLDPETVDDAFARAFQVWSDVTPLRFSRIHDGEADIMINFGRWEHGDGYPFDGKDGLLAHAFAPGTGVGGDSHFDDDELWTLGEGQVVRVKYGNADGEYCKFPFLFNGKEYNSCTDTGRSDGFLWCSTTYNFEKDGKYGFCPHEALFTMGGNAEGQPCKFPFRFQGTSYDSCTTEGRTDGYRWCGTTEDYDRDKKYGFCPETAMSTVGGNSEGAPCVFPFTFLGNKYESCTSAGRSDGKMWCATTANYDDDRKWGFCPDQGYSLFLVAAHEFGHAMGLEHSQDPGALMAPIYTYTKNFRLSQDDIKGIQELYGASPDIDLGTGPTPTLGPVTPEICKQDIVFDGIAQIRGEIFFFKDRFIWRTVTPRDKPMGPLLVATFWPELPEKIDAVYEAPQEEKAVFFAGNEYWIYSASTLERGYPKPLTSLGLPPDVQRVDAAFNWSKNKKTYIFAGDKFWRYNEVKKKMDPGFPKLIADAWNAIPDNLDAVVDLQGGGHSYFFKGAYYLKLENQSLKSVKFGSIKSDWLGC
The conditions noted are these: recombinant human MMP-2, MCA peptide substrate 4 μM, pH 7.5, room temperature; read-out: MMP-2 IC50. Put shortly: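 Assay buffer 100 mM Tris-HCl, 100 mM NaCl, 10 mM CaCl2, pH 7.5. Activated MMP + inhibitor, 5 min RT; then methoxycoumarin peptide substrate, 4 μM final. Readout fluorescence; IC50 calculated.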

The mark [1] stands for this setting: recombinant human MMP-1, MCA peptide substrate 4 μM, pH 7.5, room temperature.

Read-outs that look alike come from different tables or passages of the source.

One may read the IC50 as the concentration needed to halve the response being measured. `Cc1cc(C)cc(C(=O)C2CCN(c3ccc(S(=O)(=O)C4(C(=O)NO)CCOCC4)cc3)CC2)c1` [Example 730]: the IC50 on MMP-13 is 37 nM; on MMP-1 (setting [1]), greater than 10000 nM; on MMP-2, 3000 nM.

Consider `CCc1cccc(C(=O)C2CCN(c3ccc(S(=O)(=O)C4(C(=O)NO)CCOCC4)cc3)CC2)c1` [Example 732], for which the results for the IC50 on MMP-13, at MMP-1 (setting [1]) and at MMP-2 were 3.1 nM, greater than 10000 nM and 590 nM, respectively.

On to `CCc1ccc(C(=O)C2CCN(c3ccc(S(=O)(=O)C4(C(=O)NO)CCOCC4)cc3)CC2)cc1` [Example 733], for which the IC50 on MMP-13 is 1.6 nM; at MMP-1 (setting [1]), greater than 10000 nM; at MMP-2 it was 270 nM.

`COc1ccc(C(=O)C2CCN(c3ccc(S(=O)(=O)C4(C(=O)NO)CCOCC4)cc3)CC2)cc1F` [Example 735]: the values for the IC50 at MMP-13, at MMP-1 (setting [1]) and at MMP-2 were 9 nM, greater than 10000 nM and 800 nM, respectively.

With `Cc1ccc(C(=O)C2CCN(c3ccc(S(=O)(=O)C4(C(=O)NO)CCOCC4)cc3)CC2)cc1F` [Example 736], the IC50 on MMP-13 was 0.9 nM; on MMP-1 (setting [1]), greater than 10000 nM; on MMP-2, 145 nM.

For `Cc1ccc(C(=O)C2CCN(c3ccc(S(=O)(=O)C4(C(=O)NO)CCOCC4)cc3)CC2)cc1C` [Example 737], the values for the IC50 at MMP-13, on MMP-1 (setting [1]) and at MMP-2 were 3 nM, greater than 10000 nM and 1280 nM, respectively.

On to `O=C(c1ccc(C(F)(F)F)c(F)c1)C1CCN(c2ccc(S(=O)(=O)C3(C(=O)NO)CCOCC3)cc2)CC1` [Example 738], for which the figures for the IC50 at MMP-13, on MMP-1 (setting [1]) and on MMP-2 were 22 nM, greater than 10000 nM and 270 nM, respectively.

In the case of `COc1ccccc1COC1CCC(Oc2ccc(S(=O)(=O)C3(C(=O)NO)CCOCC3)cc2)C1` (stereo not drawn) [Example 740], the IC50 at MMP-13 is 61 nM; on MMP-1 (setting [1]) it was greater than 10000 nM; on MMP-2 it was 175 nM.

With `COc1ccccc1COC1CCC(Oc2ccc(S(=O)(=O)C3(C(=O)NO)CCOCC3)cc2)C1` (stereo not drawn) [Example 741], the IC50 at MMP-13 is 50 nM; at MMP-1 (setting [1]), greater than 10000 nM; at MMP-2 it was 125 nM.

On to `O=C(NC1CCN(c2ccc(S(=O)(=O)C3(C(=O)NO)CCOCC3)cc2)CC1)c1ccc(OC(F)(F)F)cc1` [Example 752], for which the IC50 was 14.8 nM on MMP-13, greater than 10000 nM on MMP-1 (setting [1]) and 271 nM on MMP-2.

On to `CCCCCC(=O)C1CCN(c2ccc(S(=O)(=O)C3(C(=O)NO)CCOCC3)cc2)CC1` [Example 755], for which the IC50 on MMP-13 is 2.2 nM; at MMP-1 (setting [1]), greater than 10000 nM; on MMP-2, 20 nM.

With `CC(C)CC(=O)C1CCN(c2ccc(S(=O)(=O)C3(C(=O)NO)CCOCC3)cc2)CC1` [Example 756], the IC50 was 7 nM at MMP-13, greater than 10000 nM on MMP-1 (setting [1]) and 28.8 nM on MMP-2.

For the molecule `CCCCC(=O)C1CCN(c2ccc(S(=O)(=O)C3(C(=O)NO)CCOCC3)cc2)CC1` [Example 757], the IC50 at MMP-13 was 3.3 nM; at MMP-1 (setting [1]) it was greater than 10000 nM; at MMP-2, 28.8 nM.

In the case of `C=CCCC(=O)C1CCN(c2ccc(S(=O)(=O)C3(C(=O)NO)CCOCC3)cc2)CC1` [Example 758], the values for the IC50 at MMP-13, on MMP-1 (setting [1]) and on MMP-2 were 5 nM, greater than 10000 nM and 34.7 nM, respectively.

For the molecule `C=C(C)CC(=O)C1CCN(c2ccc(S(=O)(=O)C3(C(=O)NO)CCOCC3)cc2)CC1` [Example 759], the values for the IC50 on MMP-13, on MMP-1 (setting [1]) and at MMP-2 were 3 nM, greater than 10000 nM and 60.8 nM, respectively.

With `CC(C)(Cl)CC(=O)C1CCN(c2ccc(S(=O)(=O)C3(C(=O)NO)CCOCC3)cc2)CC1` [Example 760], the figures for the IC50 at MMP-13, at MMP-1 (setting [1]) and at MMP-2 were 6 nM, greater than 10000 nM and 25.4 nM, respectively.

As for `C/C=C/CC(=O)C1CCN(c2ccc(S(=O)(=O)C3(C(=O)NO)CCOCC3)cc2)CC1` [Example 761], the IC50 on MMP-13 was 5 nM; on MMP-1 (setting [1]), greater than 10000 nM; at MMP-2, 41.8 nM.

In the case of `O=C(NO)C1(S(=O)(=O)c2ccc([C@H]3CC[C@@H](c4ccccc4)CC3)cc2)CCOCC1` [Example 781], the IC50 on MMP-13 is 800 nM; on MMP-1 (setting [1]), greater than 10000 nM; at MMP-2 it was 5100 nM.

As to `O=C(NO)C1(S(=O)(=O)c2ccc([C@H]3CC[C@H](c4ccccc4)CC3)cc2)CCOCC1` [Example 782], the IC50 is 21.1 nM on MMP-13, greater than 10000 nM at MMP-1 (setting [1]) and 100 nM at MMP-2.

For the molecule `CN(C)c1ccc(C(=O)C2CCN(c3ccc(S(=O)(=O)C4(C(=O)NO)CCOCC4)cc3)CC2)cc1` [Example 784], the IC50 is 6 nM at MMP-13, greater than 10000 nM on MMP-1 (setting [1]) and 4500 nM on MMP-2.

`C=Cc1cccc(C(=O)C2CCN(c3ccc(S(=O)(=O)C4(C(=O)NO)CCOCC4)cc3)CC2)c1` [Example 786]: the IC50 is 3.7 nM at MMP-13, greater than 10000 nM on MMP-1 (setting [1]) and 700 nM at MMP-2.

For the molecule `C=Cc1ccc(C(=O)C2CCN(c3ccc(S(=O)(=O)C4(C(=O)NO)CCOCC4)cc3)CC2)cc1` [Example 787], the IC50 was 1.2 nM at MMP-13, greater than 10000 nM at MMP-1 (setting [1]) and 175 nM at MMP-2.

With `CC(C)c1ccc(C(=O)C2CCN(c3ccc(S(=O)(=O)C4(C(=O)NO)CCOCC4)cc3)CC2)cc1` [Example 788], the figures for the IC50 on MMP-13, at MMP-1 (setting [1]) and on MMP-2 were 3 nM, greater than 10000 nM and 445 nM, respectively.

Consider `CC(C)(C)c1ccc(C(=O)C2CCN(c3ccc(S(=O)(=O)C4(C(=O)NO)CCOCC4)cc3)CC2)cc1` [Example 789], for which the IC50 is 12.2 nM on MMP-13, greater than 10000 nM at MMP-1 and 3700 nM at MMP-2.

With `CN(C)c1cccc(C(=O)C2CCN(c3ccc(S(=O)(=O)C4(C(=O)NO)CCOCC4)cc3)CC2)c1` [Example 790], the values for the IC50 on MMP-13, on MMP-1 (setting [1]) and on MMP-2 were 4.5 nM, greater than 10000 nM and 700 nM, respectively.

With `CCOc1ccc(C(=O)C2CCN(c3ccc(S(=O)(=O)C4(C(=O)NO)CCOCC4)cc3)CC2)cc1` [Example 791], the values for the IC50 at MMP-13, on MMP-1 (setting [1]) and at MMP-2 were 2 nM, greater than 10000 nM and 700 nM, respectively.

Consider `CS(=O)(=O)N1CCC(C2CCN(c3ccc(S(=O)(=O)C4(C(=O)NO)CCOCC4)cc3)CC2)CC1` [Example 793], for which the IC50 is 4 nM at MMP-13, greater than 10000 nM at MMP-1 (setting [1]) and 23.5 nM on MMP-2.

Regarding `O=C(NO)C1(S(=O)(=O)c2ccc(OC3CN(C(c4ccccc4)c4ccccc4)C3)cc2)CCOCC1` [Example 794], the IC50 at MMP-13 is 1500 nM; at MMP-1 (setting [1]) it was greater than 10000 nM; at MMP-2, 2900 nM.

With `O=C(c1ccc2c(c1)OCO2)C1CCN(c2ccc(S(=O)(=O)C3(C(=O)NO)CCOCC3)cc2)CC1` [Example 796], the figures for the IC50 at MMP-13, on MMP-1 (setting [1]) and on MMP-2 were 5.7 nM, greater than 10000 nM and 130 nM, respectively.

On to `O=C(c1ccc2c(c1)OCCO2)C1CCN(c2ccc(S(=O)(=O)C3(C(=O)NO)CCOCC3)cc2)CC1` [Example 797], for which the IC50 on MMP-13 was 4 nM; on MMP-1, greater than 10000 nM; on MMP-2 it was 175 nM.

For `C=CCC(=O)C1CCN(c2ccc(S(=O)(=O)C3(C(=O)NO)CCOCC3)cc2)CC1` [Example 798], the figures for the IC50 on MMP-13, on MMP-1 (setting [1]) and at MMP-2 were 20 nM, greater than 10000 nM and 210 nM, respectively.

Consider `CCCC(=O)C1CCN(c2ccc(S(=O)(=O)C3(C(=O)NO)CCOCC3)cc2)CC1` [Example 799], for which the IC50 at MMP-13 was 10.6 nM; on MMP-1 (setting [1]), greater than 10000 nM; on MMP-2, 43.5 nM.

Values taken from patent publication US6750228B1, “Aromatic sulfone hydroxamic acid metalloprotease inhibitor” (priority 1997, dated 2004).
